The assay has as its system C. elegans.

Structures are written as SMILES.

Procedure: NGM buffer is NGM agar without agar, peptone, or cholesterol.
A moat solution of 100 mM CuSO4 was prepared, which was approximately in osmotic equilibrium with the agar medium. The moat solution was added to the moats by pipette.

As to `O=S(=O)([O-])[O-].[Cu+2]` [copper sulfate], under “after 3 days, moat containing 100 mM copper sulfate, NGM liquid moat as comparison (about 20%)”, the worms escaped amounted to 5%. The “preventing animals from leaving their wells (fraction of worms escaping wells as a function of time)” value (moat containing 100 mM CuSO4, n=96, versus moat containing NGM buffer, FIG. 7b) is “superior”.

Values taken from US11795423B2, “Micro-fabricated multi-well chips for long term automated imaging of C. elegans growth and behavior” (THE TRUSTEES OF THE UNIVERSITY OF PENNSYLVANIA, priority 2014, dated 2023).
